Experimental data reported in US4939241A, “Amino acid derivatives of antitumor activity” (Fujisawa Pharmaceutical Co., Ltd., priority 1987, dated 1990).
≈ marks a conversion by molar mass, not a printed value.

Assays:
[1] = test system: human lung adenocarcinoma A549 cell; test: Inhibition of human lung adenocarcinoma A549 cell growth in vitro (MTT assay); type: cell-based; details: 168 h, A549 cells, seven days at 37° C.
Description: Inhibition of human lung adenocarcinoma A549 cell growth in vitro by some compounds of the amino acid derivatives (I)
The cytotoxicity test was performed in microtiter plates, with each well containing 3×10^3 A549 cells in 100 μl Dulbecco's minimum essential medium supplemented with 10% fetal calf serum, penicillin (50 units/ml) and streptomycin (50 μg/ml). The cells were incubated at 37° C. for seven days and the colorimetric MTT (tetrazolium) assay was performed according to the method described by Mosmann (J. Immunol. Methods, 65, 55-63, 1983). MTT [3-(4,5-dimethylthiazol-2-yl)-2,5-diphenyl tetrazolium bromide, made by Sigma] was dissolved in PBS at 5 mg/ml and filtered to sterilize and remove a small amount of insoluble residue. After the culture of A549 cells was terminated, this MTT solution (10 μl per 100μl medium) was added to plates were further incubated at 37° C. for 4 hours. Acid-isopropanol (100 μl of 0.04N HCl in isopropanol) was added to all wells and mixed thoroughly to dissolve the dark blue crystals. After all crystals were dissolved, the plates were read on a 2-wavelength microplate photometer (Model MTP-22; Corona Electric Co., Ltd., Katsuta, Japan) at 550 nm, a reference wavelength of 660 nm. The object compound of this invention was dissolved and diluted in Dulbecco's minimum essential medium and added to the culture to give final concentration of 30μg/ml or less.

[2] = test system: human mammary adenocarcinoma MCF-7 cell; test: Inhibition of human mammary adenocarcinoma MCF-7 cell growth in vitro (MTT assay); type: cell-based; details: MCF7, 168 h, MCF-7 cells, seven days at 37° C.
Description: Inhibition of human mammary adenocarcinoma MCF-7 cell growth in vitro by some compounds of the amino acid derivatives (I)
The cytotoxicity test was performed in microtiter plates, with each well containing 3×10^3 MCF-7 cells in 100 μl Eagle's minimum essential medium supplemented with 10% fetal calf serum, sodium pyruvate, nonessential amino acids, penicillin (50 units/ml) and streptomycin (50 μg/ml). The cells were incubated at 37° C. for seven days in humidified atomosphere of 5% carbon dioxide and 95% of air and the colorimetric MTT assay was performed as described in Test 1.
The test compound was dissolved and diluted in Eagle's minimum essential medium and added to the culture to give final concentration of 30 μg/ml or less.

[3] = Acute toxicity in BDF1 mice by intravenous injection; details: mouse, in vivo
Description: Acute toxicity of FR-900840 substance in BDF1 mice by intravenous injection is 180 mg/kg.

[4] = Solubility of FR-900840 substance; type: physicochemical

| Structure (SMILES) | IC50 [1] | IC50 [2] | further results |
| --- | --- | --- | --- |
| C[C@H](O)C(=[N+]=[N-])C(=O)OC[C@H](N)C(=O)O [Example 4, O-[2-Diazo-3(S)-hydroxy-1-oxobutyl]-L-serine] | 0.018 ng/mL (≈ 0.0829 nM) | 0.00082 ng/mL (≈ 0.00378 nM) |  |
| C[C@@H](O)C(=[N+]=[N-])C(=O)OC[C@H](N)C(=O)O [Example 1, O-[2-diazo-3(R)-hydroxy-1-oxobutyl]-L-serine] | 0.012 ng/mL (≈ 0.0553 nM) | 0.0018 ng/mL (≈ 0.00829 nM) | LD50 [3]: 180 mg/kg; Solubility ([4]; acetone): insoluble; Solubility ([4]; benzene): insoluble; Solubility ([4]; chloroform): insoluble; Solubility ([4]; diethyl ether): insoluble; Solubility ([4]; ethanol): sparingly soluble; Solubility ([4]; ethyl acetate): insoluble; Solubility ([4]; methanol): sparingly soluble; Solubility ([4]; water): soluble |
| C[C@@H](O)C(=[N+]=[N-])C(=O)OC[C@H](NC(=O)C(F)(F)F)C(=O)O [Example 2, O-[2-Diazo-3(R)-hydroxy-1-oxobutyl]-N-trifluoroacetyl-L-serine] | 0.0105 ng/mL (≈ 0.0335 nM) | 0.0068 ng/mL (≈ 0.0217 nM) |  |

Second part, led by results:

| IC50 [1] | IC50 [2] | Structure (SMILES) | further results |
| --- | --- | --- | --- |
| 0.0018 ng/mL (≈ 0.00886 nM) | 0.0017 ng/mL (≈ 0.00837 nM) | [N-]=[N+]=C(CO)C(=O)OC[C@H](N)C(=O)O [Example 6, O-(2-Diazo-3-hydroxy-1-oxopropyl)-L-serine] |  |
| 0.14 ng/mL (≈ 0.501 nM) | 0.076 ng/mL (≈ 0.272 nM) | [N-]=[N+]=C(C(=O)OC[C@H](N)C(=O)O)C(O)c1ccccc1 (stereo partly shown) [Example 5] |  |
